Assay results as given in patent publication US20260132140A1, “IMIDAZOLYL-AMINO-PYRAZINE-CARBONITRILS AS CHK-1 INHIBITORS” (BenevolentAI Bio Limited, priority 2022, published 2026).

Columns and labels:
human Chk1 kinase = target: T1, human Chk1 kinase (Homo sapiens, UniProt O14757); assay: biochemical
T1 sequence (O14757 1-476): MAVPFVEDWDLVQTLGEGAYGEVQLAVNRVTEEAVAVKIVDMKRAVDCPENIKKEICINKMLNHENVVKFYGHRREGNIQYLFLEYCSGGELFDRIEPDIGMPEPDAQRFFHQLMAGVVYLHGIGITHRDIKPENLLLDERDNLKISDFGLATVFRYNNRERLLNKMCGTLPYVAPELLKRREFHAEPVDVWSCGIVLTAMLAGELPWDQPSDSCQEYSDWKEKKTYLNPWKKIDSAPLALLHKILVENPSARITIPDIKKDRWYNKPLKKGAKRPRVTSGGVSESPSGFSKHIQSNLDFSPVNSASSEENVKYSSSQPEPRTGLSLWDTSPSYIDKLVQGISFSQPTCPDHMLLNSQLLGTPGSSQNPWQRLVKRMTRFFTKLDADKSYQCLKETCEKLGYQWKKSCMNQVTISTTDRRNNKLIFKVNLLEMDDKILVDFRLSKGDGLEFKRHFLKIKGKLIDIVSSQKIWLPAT

human Chk2 kinase = human Chk2 kinase (Homo sapiens, UniProt O96017); assay: biochemical
Chain of human Chk2 kinase (O96017 whole entry): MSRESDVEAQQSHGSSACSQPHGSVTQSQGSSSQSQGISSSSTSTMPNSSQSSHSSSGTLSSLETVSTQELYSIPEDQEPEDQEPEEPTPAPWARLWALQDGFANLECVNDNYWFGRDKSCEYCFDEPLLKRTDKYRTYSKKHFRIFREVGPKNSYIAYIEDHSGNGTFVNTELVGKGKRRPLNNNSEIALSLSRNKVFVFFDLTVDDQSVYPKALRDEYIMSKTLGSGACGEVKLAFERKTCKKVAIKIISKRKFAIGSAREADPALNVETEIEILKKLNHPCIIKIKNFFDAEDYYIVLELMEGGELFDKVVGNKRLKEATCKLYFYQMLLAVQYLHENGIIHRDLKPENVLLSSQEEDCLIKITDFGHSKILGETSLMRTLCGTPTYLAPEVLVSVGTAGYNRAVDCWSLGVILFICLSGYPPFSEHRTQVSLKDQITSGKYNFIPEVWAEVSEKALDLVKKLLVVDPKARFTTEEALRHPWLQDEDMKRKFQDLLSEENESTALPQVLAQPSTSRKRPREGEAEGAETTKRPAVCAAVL

GBM LN18 cells = assay: In vitro cell viability assay (Cell Titre Glo, 72 hours); assay type: cell-based; settings: Homo sapiens, LN-18, read-out: LN18 pIC50 (converted)
Description: GBM LN18 cells were incubated with increasing concentrations of selected compounds of the invention for 72 hours prior to the measurement of ATP in metabolically viable cells with the Cell Titre® Glo Luminescent reagent. A 10-point concentration response curve up to a maximum concentration of 10 μM was tested.
The percent (%) effect i.e., inhibition at each concentration of compound was calculated based on, and relative to the amount of inhibition produced in the vehicle control and inhibited control wells contained within each plate.

| Compound | IC50 (human Chk1 kinase) | IC50 (human Chk2 kinase) | IC50 (GBM LN18 cells) |
| --- | --- | --- | --- |
| N#Cc1cnc(Nc2cn(-c3ccc(N4C[C@@H](F)[C@@H](N)C4)cc3)cn2)cn1 [Example 157, 5-((1-(4-((3S,4R)-3-Amino-4-fluoropyrrolidin-1-yl)phenyl)-1H-imidazol-4-yl)amino)pyrazine-2-carbonitrile] | < 0.01 µM | 10 to 100 µM | 1 to 10 µM |
| C[C@H]1C[C@@H](N(C)C)CN1c1ccc(-n2cnc(Nc3cnc(C#N)cn3)c2)cc1 [Example 75, 5-((1-(4-((2S,4R)-4-(Dimethylamino)-2-methylpyrrolidin-1-yl)phenyl)-1H-imidazol-4-yl)amino)pyrazine-2-carbonitrile] | – | – | < 1 µM |
| C[C@@H]1CN(c2ccc(-n3cnc(Nc4cnc(C#N)cn4)c3)cc2)C[C@@H]1N(C)C [Example 76, 5-((1-(4-((3R,4R)-3-(Dimethylamino)-4-methylpyrrolidin-1-yl)phenyl)-1H-imidazol-4-yl)amino)pyrazine-2-carbonitrile] | 0.01 to 0.0316 µM | 10 to 100 µM | < 1 µM |
| CN1C[C@@H]2CN(c3ccc(-n4cnc(Nc5cnc(C#N)cn5)c4)cc3)[C@@H]2C1 [Example 67, 5-((1-(4-((1R,5S)-3-Methyl-3,6-diazabicyclo[3.2.0]heptan-6-yl)phenyl)-1H-imidazol-4-yl)amino)pyrazine-2-carbonitrile] | 0.0316 to 0.1 µM | 10 to 100 µM | < 1 µM |
| CN(C)c1cc(N2CC[C@@H](N(C)C)C2)ccc1-n1cnc(Nc2cnc(C#N)cn2)c1 [Example 83, (R)-5-((1-(2-(Dimethylamino)-4-(3-(dimethylamino)pyrrolidin-1-yl)phenyl)-1H-imidazol-4-yl)amino)pyrazine-2-carbonitrile] | 0.316 to 1 µM | 10 to 100 µM | 1 to 10 µM |
| N#Cc1cnc(Nc2cn(-c3ccc(OCCN)cc3)cn2)cn1 [Example 150, 5-((1-(4-(2-Aminoethoxy)phenyl)-1H-imidazol-4-yl)amino)pyrazine-2-carbonitrile] | – | – | 1 to 10 µM |
| C[C@@H]1C[C@@H](N)CN1c1ccc(-n2cnc(Nc3cnc(C#N)cn3)c2)cc1 [Example 165, 5-((1-(4-((2R,4R)-4-Amino-2-methylpyrrolidin-1-yl)phenyl)-1H-imidazol-4-yl)amino)pyrazine-2-carbonitrile] | < 0.01 µM | 1 to 10 µM | < 1 µM |
| N#Cc1cnc(Nc2cn(-c3ccc(N4C[C@H](N)[C@@H](F)C4)cc3)cn2)cn1 [Example 152, 5-((1-(4-((3S,4S)-3-Amino-4-fluoropyrrolidin-1-yl)phenyl)-1H-imidazol-4-yl)amino)pyrazine-2-carbonitrile] | 0.01 to 0.0316 µM | 10 to 100 µM | 1 to 10 µM |
| CC(C)N[C@@H]1CCN(c2ccc(-n3cnc(Nc4cnc(C#N)cn4)c3)cc2)C1 [Example 96, (R)-5-((1-(4-(3-(Isopropylamino)pyrrolidin-1-yl)phenyl)-1H-imidazol-4-yl)amino)pyrazine-2-carbonitrile] | 0.01 to 0.0316 µM | 10 to 100 µM | < 1 µM |
| CN1CC2(CCN(c3ccc(-n4cnc(Nc5cnc(C#N)cn5)c4)cc3)C2)C1 [Example 69, 5-((1-(4-(2-Methyl-2,6-diazaspiro[3.4]octan-6-yl)phenyl)-1H-imidazol-4-yl)amino)pyrazine-2-carbonitrile] | 0.01 to 0.0316 µM | 10 to 100 µM | 1 to 10 µM |
| CN(C)[C@@H]1CCN(c2cnc(-n3cnc(Nc4cnc(C#N)cn4)c3)cn2)C1 [Example 52, (R)-5-((1-(5-(3-(Dimethylamino)pyrrolidin-1-yl)pyrazin-2-yl)-1H-imidazol-4-yl)amino)pyrazine-2-carbonitrile] | 0.0316 to 0.1 µM | 10 to 100 µM | 1 to 10 µM |
| CN(C)[C@@H]1CCN(c2ccc(-n3cnc(Nc4cnc(C#N)cn4)c3)c(C(F)(F)F)c2)C1 [Example 71, (R)-5-((1-(4-(3-(Dimethylamino)pyrrolidin-1-yl)-2-(trifluoromethyl)phenyl)-1H-imidazol-4-yl)amino)pyrazine-2-carbonitrile] | 0.1 to 0.316 µM | > 100 µM | < 1 µM |
| CN1C[C@H]2CN(c3ccc(-n4cnc(Nc5cnc(C#N)cn5)c4)cc3)[C@H]2C1 [Example 68, 5-((1-(4-((1S,5R)-3-Methyl-3,6-diazabicyclo[3.2.0]heptan-6-yl)phenyl)-1H-imidazol-4-yl)amino)pyrazine-2-carbonitrile] | 0.0316 to 0.1 µM | 10 to 100 µM | < 1 µM |
| N#Cc1cnc(Nc2cn(-c3ccc(N4CC(CN)C4)cc3)cn2)cn1 [Example 158, 5-((1-(4-(3-(Aminomethyl)azetidin-1-yl)phenyl)-1H-imidazol-4-yl)amino)pyrazine-2-carbonitrile] | 0.01 to 0.0316 µM | 10 to 100 µM | 1 to 10 µM |
| C[N+](C)([O-])[C@@H]1CCN(c2ccc(-n3cnc(Nc4cnc(C#N)cn4)c3)cc2)C1 [Example 141, (R)-1-(4-(4-((5-Cyanopyrazin-2-yl)amino)-1H-imidazol-1-yl)phenyl)-N,N-dimethylpyrrolidin-3-amine oxide] | 0.1 to 0.316 µM | 10 to 100 µM | 1 to 10 µM |
| N#Cc1cnc(Nc2cn(-c3cccc(N4CCN5CCC[C@H]5C4)c3)cn2)cn1 [Example 35, (S)-5-((1-(3-(Hexahydropyrrolo[1,2-a]pyrazin-2(1H)-yl)phenyl)-1H-imidazol-4-yl)amino)pyrazine-2-carbonitrile] | 0.0316 to 0.1 µM | > 100 µM | – |
| CN1CCC2(CC1)CCN(c1cccc(-n3cnc(Nc4cnc(C#N)cn4)c3)c1)C2 [Example 39, 5-((1-(3-(8-Methyl-2,8-diazaspiro[4.5]decan-2-yl)phenyl)-1H-imidazol-4-yl)amino)pyrazine-2-carbonitrile] | 0.01 to 0.0316 µM | 10 to 100 µM | – |
| CN(C)[C@@H]1CCN(c2ccc(-n3cnc(Nc4cnc(C#N)cn4)c3)cc2F)C1 [Example 79, (R)-5-((1-(4-(3-(Dimethylamino)pyrrolidin-1-yl)-3-fluorophenyl)-1H-imidazol-4-yl)amino)pyrazine-2-carbonitrile] | < 0.01 µM | 1 to 10 µM | < 1 µM |
| C[C@H]1CCN1C1CCN(c2ccc(-n3cnc(Nc4cnc(C#N)cn4)c3)cc2)C1 (single isomer, unassigned) [Example 138] | < 0.01 µM | 1 to 10 µM | – |
| COc1cc(OC2CN(C(C)(C)C)C2)ccc1-n1cnc(Nc2cnc(C#N)cn2)c1 [Example 53, 5-((1-(4-((1-(tert-Butyl)azetidin-3-yl)oxy)-2-methoxyphenyl)-1H-imidazol-4-yl)amino)pyrazine-2-carbonitrile] | 0.01 to 0.0316 µM | 10 to 100 µM | – |
| CN1CCC2(CCN2c2ccc(-n3cnc(Nc4cnc(C#N)cn4)c3)cc2)C1 (single isomer, unassigned) [Example 119, 5-((1-(4-(6-Methyl-1,6-diazaspiro[3.4]octan-1-yl)phenyl)-1H-imidazol-4-yl)amino)pyrazine-2-carbonitrile] | 0.01 to 0.0316 µM | 10 to 100 µM | – |
| CN(C)[C@@H]1CCN(c2cccc(-n3cnc(Nc4cnc(C#N)cn4)c3)c2)C1 [Example 38, (R)-5-((1-(3-(3-(Dimethylamino)pyrrolidin-1-yl)phenyl)-1H-imidazol-4-yl)amino)pyrazine-2-carbonitrile] | 0.01 to 0.0316 µM | 10 to 100 µM | – |
| CN1CC[C@@H]2CN(c3ccc(-n4cnc(Nc5cnc(C#N)cn5)c4)cc3)C[C@@H]21 [Example 87, 5-((1-(4-((3aR,6aR)-1-Methylhexahydropyrrolo[3,4-b]pyrrol-5(1H)-yl)phenyl)-1H-imidazol-4-yl)amino)pyrazine-2-carbonitrile] | 0.01 to 0.0316 µM | 10 to 100 µM | – |
| N#Cc1cnc(Nc2cn(-c3ccc(N4CC(F)(CN)C4)cc3)cn2)cn1 [Example 159, 5-((1-(4-(3-(Aminomethyl)-3-fluoroazetidin-1-yl)phenyl)-1H-imidazol-4-yl)amino)pyrazine-2-carbonitrile] | 0.01 to 0.0316 µM | 1 to 10 µM | – |
| CN1CC2(CC(Oc3cccc(-n4cnc(Nc5cnc(C#N)cn5)c4)c3)C2)C1 [Example 175, 5-((1-(3-((2-Methyl-2-azaspiro[3.3]heptan-6-yl)oxy)phenyl)-1H-imidazol-4-yl)amino)pyrazine-2-carbonitrile] | 0.0316 to 0.1 µM | 10 to 100 µM | – |
| CN(C)C1CCN(c2ccc(-n3cnc(Nc4cnc(C#N)cn4)c3)cc2)CC1 [Example 37, 5-((1-(4-(4-(Dimethylamino)piperidin-1-yl)phenyl)-1H-imidazol-4-yl)amino)pyrazine-2-carbonitrile] | < 0.01 µM | 1 to 10 µM | – |
| CN1C[C@@H]2CN(c3ccc(-n4cnc(Nc5cnc(C#N)cn5)c4)c(F)c3)[C@@H]2C1 [Example 80, 5-((1-(2-Fluoro-4-((1R,5S)-3-methyl-3,6-diazabicyclo[3.2.0]heptan-6-yl)phenyl)-1H-imidazol-4-yl)amino)pyrazine-2-carbonitrile] | 0.0316 to 0.1 µM | 10 to 100 µM | – |
| N#Cc1cnc(Nc2cn(-c3ccc(N4CCN(C5COC5)CC4)cc3)cn2)cn1 [Example 182, 5-((1-(4-(4-(Oxetan-3-yl)piperazin-1-yl)phenyl)-1H-imidazol-4-yl)amino)pyrazine-2-carbonitrile] | 0.0316 to 0.1 µM | 10 to 100 µM | – |
